# Reference: patent US20050244938A1, “Manzamine-producing actinomycetes” (priority 2002, published 2005)
# Where two headings read alike, the source gives them in different places.
# Assays:
# [1] = system: Mycobacterium tuberculosis (H37Rv); experiment: microplate Alamar Blue assay, in vitro activity against Mycobacterium tuberculosis; assay type: cell-based
# [2] = system: Plasmodium falciparum (D6 clone); experiment: in vitro antimalarial activity, D6 clone; assay type: cell-based; settings: for IC50: Plasmodium falciparum
# [3] = system: P. falciparum (chlorine-resistant W2 clone); experiment: in vitro antimalarial activity, resistant W2 clone; assay type: cell-based, Plasmodium falciparum; settings: NA = not active; for IC50: Plasmodium falciparum, read-out: P. falciparum (chlorine-resistant W2 clone) in vitro IC 50
# Nocardia sp. ATCC 21145 = experiment: microbial transformation study to model human metabolism; settings: monitored by TLC, metabolite identical to ent-12,34-oxamanzamine F (2)
# Method: (§1) In order to model the human metabolism of the manzamines and to generate additional analogs for biological evaluation, microbial transformation studies were performed for ent-8-hydroxymanzamine A (El Sayed, et al., 2001) (3). Thirty-three growing microbial cultures were screened for their potential to bioconvert 3 to new metabolites.
# [4] = system: Fusarium oxysporium ATCC 7601; experiment: as above; settings: monitored by TLC, metabolite identical to ent-12,34-oxamanzamine F (2)
# Method: as §1
# toxicity (no method) = settings: qualitative statement
# [5] = D6 clone, in vitro, NA = not active
Compound,Mycobacterium tuberculosis (H37Rv) MIC [1],"Plasmodium falciparum (D6 clone) in vitro IC 50 [2, 5]",P. falciparum (chlorine-resistant W2 clone) in vitro IC 50 [3],further results
"O=C1CCCN2[C@H]3[C@]45CN6CCCC/C=C\CC[C@]3(C=C(c3nccc7c3[nH]c3c(O)cccc37)[C@H]4CC6)O[C@]2(CC1)C5 (single isomer, unassigned; ent-12) [ent-12,34-Oxamanzamine F (2), ent-12,34-oxamanzamine F]",12.5 µg/mL,0.84 µg/mL,1.1 µg/mL,–
"O[C@]12C=C(c3nccc4c3[nH]c3ccccc34)C3CCN(CCCC/C=C\CC1)C[C@@]31C[C@]34CC[C@H](CCCN3[C@H]12)O4 (some centres unmarked) [6-Deoxymanzamine X, 6-deoxymanzamine X]",1.77 µg/mL,1.3 µg/mL,1.4 µg/mL,–
"C1=C(c2nccc3c2[nH]c2ccccc23)[C@@H]2CCN3CCCC/C=C\CC[C@]14O[C@@]15/C=C\CCCCN1[C@@H]4[C@]2(C3)C5 [12,34-oxamanzamine A (4), 12,34-oxamanzamine A]",–,4.76 µg/mL,–,–
C[C@@H]1CC[C@H]2[C@@H](C)C(=O)O[C@@H]3O[C@@]4(C)CC[C@@H]1[C@]32OO4 [Artemisinin],–,–,–,"IC50 ([2]; D6 clone, in vitro, NA = not active, read-out: Plasmodium falciparum (D6 clone) in vitro IC 50): 0.01 µg/mL; IC50 [3]: 0.0063 µg/mL"
CCN(CC)CCCC(C)Nc1ccnc2cc(Cl)ccc12 (centres unmarked) [Chloroquine],–,–,–,"IC50 ([2]; D6, read-out: Plasmodium falciparum (D6 clone) in vitro IC 50): 0.0155 µg/mL; IC50 [3]: 0.17 µg/mL"
"O=CC1=C[C@@]2(O)CC/C=C\CCCCN3CC[C@@H]1[C@]1(CC4/C=C\CCCCN4[C@H]12)C3 (some centres unmarked) [Ircinal A, ircinal A]",30.2 µg/mL,–,–,–
"O[C@]12C=C(c3nccc4c3[nH]c3ccccc34)[C@@H]3CCN(CCCC/C=C\CC1)C[C@@]31C[C@@H]3/C=C\CCCCN3[C@H]12 [Manzamine A, manzamine A]",1.53 µg/mL,0.0045 µg/mL,0.008 µg/mL,–
"O=C1CCCN2[C@@H](CC1)C[C@]13CN4CCCC/C=C\CC[C@](O)(C=C(c5nccc6c5[nH]c5ccccc56)[C@@H]1CC4)[C@H]23 [Manzamine E, manzamine E]",3.76 µg/mL,3.4 µg/mL,4.76 µg/mL,–
"O=C1CCCN2[C@@H](CC1)C[C@]13CN4CCCC/C=C\CC[C@](O)(C=C(c5nccc6c5[nH]c5c(O)cccc56)C1CC4)[C@H]23 (some centres unmarked) [Manzamine F, manzamine F]",2.56 µg/mL,0.78 µg/mL,1.7 µg/mL,–
(+)-8-hydroxymanzamine A,0.91 µg/mL,0.006 µg/mL,0.008 µg/mL,–
ent-8-hydroxymanzamine A [ent-8-hydroxymanzamine A (3)],3.13 µg/mL,–,–,bioconversion by growing microbial culture (Nocardia sp. ATCC 21145): exhaustively metabolize; bioconversion by growing microbial culture [4]: exhaustively metabolize
"ent-12,34-oxamanzamine E [ent-12,34-Oxamanamine E (1)]",128 µg/mL,–,–,–
ircinol A,1.93 µg/mL,2.4 µg/mL,3.1 µg/mL,toxicity (toxicity (no method)): minimal toxicity
